Reference: publication PMC4363092 (Journal of medicinal chemistry, 2014)

Experiments:
TNAP = target: T1, TNAP (Homo sapiens, UniProt P05186); test: TNAP stability assay: hydrolysis by TNAP; format: in vitro ADME; details: 1 h, pH 9, 100 μM (data not shown)
T1 sequence (P05186 18-502 limits assumed): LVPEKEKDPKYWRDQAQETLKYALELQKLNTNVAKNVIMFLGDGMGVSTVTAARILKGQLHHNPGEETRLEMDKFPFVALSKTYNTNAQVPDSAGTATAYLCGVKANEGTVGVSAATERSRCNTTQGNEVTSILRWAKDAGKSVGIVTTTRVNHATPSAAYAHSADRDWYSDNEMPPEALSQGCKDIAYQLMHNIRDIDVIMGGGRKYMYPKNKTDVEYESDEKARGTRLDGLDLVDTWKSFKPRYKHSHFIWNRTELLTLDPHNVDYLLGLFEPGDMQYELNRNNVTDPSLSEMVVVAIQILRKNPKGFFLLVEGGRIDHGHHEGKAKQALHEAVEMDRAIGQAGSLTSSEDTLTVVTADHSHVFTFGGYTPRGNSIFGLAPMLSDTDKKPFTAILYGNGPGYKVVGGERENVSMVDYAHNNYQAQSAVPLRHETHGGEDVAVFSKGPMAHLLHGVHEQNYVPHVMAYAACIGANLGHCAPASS

P2Y1 receptor = P2Y1 receptor (Homo sapiens, UniProt P47900); test: [Ca2+]i elevation in 1321N1 astrocytoma cells expressing GFP-P2Y1 receptor; format: cell-based; details: EC50 of the nucleotide in relation to the EC50 of ATP
P2Y1 receptor, sequence (P47900 whole entry): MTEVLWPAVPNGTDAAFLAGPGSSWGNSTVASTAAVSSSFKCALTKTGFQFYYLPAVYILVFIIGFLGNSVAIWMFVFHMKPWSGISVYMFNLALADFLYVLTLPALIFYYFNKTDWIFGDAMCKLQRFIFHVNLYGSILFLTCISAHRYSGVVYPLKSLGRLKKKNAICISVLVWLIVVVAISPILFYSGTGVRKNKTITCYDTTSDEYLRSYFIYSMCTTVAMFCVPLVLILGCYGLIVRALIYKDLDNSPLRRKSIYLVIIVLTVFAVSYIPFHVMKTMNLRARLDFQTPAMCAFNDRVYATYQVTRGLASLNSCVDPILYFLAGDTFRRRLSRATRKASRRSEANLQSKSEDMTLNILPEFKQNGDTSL

**Q.** What does the source list for `Nc1ncnc2c1ncn2[C@@H]1O[C@H](COP(=O)(O)OP(=O)(O)OP(=O)(O)O)[C@@H](O)[C@H]1O` [ATP, reference compound]?
**A.** hydrolysis by TNAP (TNAP): 100%; increase in efficacy vs ATP, P2Y1 (P2Y1 receptor): 1
